In brackets after ≈: the same amount, converted by molar mass.
Conditions: buffer; pH 7.4; 200.0 µM

Row | Structure (SMILES) | solubility kinetic [µg/mL]
1 | Cc1ccc(Cc2nc3ccccc3[nH]2)cc1 | 31.8 (≈ 143 µM)
2 | CCOC(=O)Cc1csc(NC(=O)Cc2ccccc2)n1 | > 45.7
3 | CC(=O)N1CCC[C@H]1C(=O)O | > 23.6
4 | N#C/C(=C/c1ccc(-c2ccccc2[N+](=O)[O-])o1)C(N)=O | 1.7 (≈ 6 µM)
5 | O=c1[nH]c2ccccc2c(O)c1O | > 26.6
6 | COc1ccc(C=O)cc1Cn1ccnc1.Cl | > 37.9
7 | CN1CCCN(C(=O)c2cccc(Cl)c2)CC1 | > 37.9
8 | O=C(Nc1ccc(Cl)cc1)C1CCCCN1S(=O)(=O)c1ccccc1 (stereo unspecified) | 24.7 (≈ 65.2 µM)
9 | COc1ccc(C(=O)Nc2ccc(NC(=O)C3CC3)nc2)cc1 | 1.7 (≈ 5.46 µM)
10 | O=C(CC1C(=O)NCCN1Cc1cccc(F)c1)NC1CCC1 (stereo unspecified) | 42 (≈ 132 µM)
11 | N#Cc1ccc(C(=O)Nc2nc3ccccc3[nH]2)cc1 | 2.6 (≈ 9.91 µM)
12 | Cc1ccccc1C(=O)Nc1cccc(NC(=O)c2ccccc2[N+](=O)[O-])c1 | 1.2 (≈ 3.2 µM)
13 | Cc1cc(C)cc(NC(=O)c2cccc(N3C(=O)C4C5C=CC(C5)C4C3=O)c2)c1 (stereo unspecified) | < 0.4
14 | Cc1ccc(Cl)cc1NC(=O)C1COc2ccccc2O1 (stereo unspecified) | < 0.7
15 | O=C1COc2ccc(C(=O)COC(=O)c3ccccc3F)cc2N1 | 10.1 (≈ 30.7 µM)
16 | CCC(C)[C@H](NC(=O)NCCCOC(C)C)C(=O)OC (stereo partly specified) | > 43.3
17 | O=[N+]([O-])c1ccccc1/C=N/OCc1ccccc1 | 2.6 (≈ 10.1 µM)
18 | CC(C)(C)Nc1nc(Cl)nc(NC2CCCCC2)n1 | 0.2 (≈ 0.705 µM)
19 | O=[N+]([O-])c1cccc(-c2noc(-c3cccs3)n2)c1 | < 0.2
20 | CCOC(=O)c1csc(-c2sccc2Br)n1 | 18.7 (≈ 58.8 µM)
21 | Cc1nccn1CC(O)COc1ccc([N+](=O)[O-])cc1 (stereo unspecified) | > 41.6
22 | COc1ccc(N2C(=O)/C(=C/c3cccs3)C(=O)NC2=S)cc1 | 31.4 (≈ 91.2 µM)
23 | CC(OC(=O)c1cn(C)c2ccccc12)C(=O)N1CCCC1 (stereo unspecified) | > 45.1
24 | O=C(COC(=O)CNC(=O)C1CCCCC1)NCc1ccc(Cl)cc1 | 49.5 (≈ 135 µM)
25 | CSc1ccc(NC(=O)/C=C/C(=O)O)cc1 | 30.8 (≈ 130 µM)

Row | Structure (SMILES) | solubility kinetic [µg/mL]
26 | Cc1ccccc1N1CCN(CCCN2C(=O)C3CCCCN3C2=O)CC1 (stereo unspecified) | 40.7 (≈ 110 µM)
27 | Cc1cc(C)c(C)c(S(=O)(=O)N2CCN(C(=O)c3cc(S(=O)(=O)N4CCOCC4)ccc3F)CC2)c1C | 12.7 (≈ 22.9 µM)
28 | COc1ccc(C(=O)n2cnc3ccccc32)cc1 | > 37.8
29 | CCCn1c(=O)c(Br)cn(-c2ccccc2C)c1=O | 48.2 (≈ 149 µM)
30 | CCC(C)NS(=O)(=O)c1ccc(NC(=O)c2cccs2)cc1 (stereo unspecified) | 2.6 (≈ 7.68 µM)
31 | O=C1NC2(CCCCCC2)C(=O)N1Cc1c(F)cccc1Cl | 9.6 (≈ 29.6 µM)
32 | O=C1NC2(CCCCC2)C(=O)N1Cc1cc(=O)n2ccsc2n1 | 44.7 (≈ 134 µM)
33 | COc1ccc(OC)c(C(=O)NC2CCSc3ccccc32)c1 (stereo unspecified) | 12.1 (≈ 36.7 µM)
34 | O=C(c1cc(Cl)ccc1O)N1CCN(S(=O)(=O)Cc2ccccc2)CC1 | > 59.2
35 | Cc1ccc(N(Cc2ccccc2)C(=O)CN2C(=O)NC3(CCCC3)C2=O)cc1 | > 58.7
36 | COc1ccc(NC(=S)NC(=O)c2cccnc2)cc1 | 15.5 (≈ 53.9 µM)
37 | CC1CN(CC(=O)NC(C)c2ccccc2)CC(C)O1 (stereo unspecified) | > 41.5
38 | Nc1nc(SCC(=O)NC2CCCC2)[nH]c(=O)c1NC(=O)c1cccs1 | 4.4 (≈ 11.2 µM)
39 | O=[N+]([O-])c1ccc(Oc2ccc(S(=O)(=O)N3CCOCC3)cc2)cc1 | 18.1 (≈ 49.7 µM)
40 | CCOC(=O)c1c(C)oc2c1c(C=NCCC(=O)O)c(O)c1ccccc12 | < 0.8
41 | CC1Oc2ccccc2N(CC(=O)NC2CC2)C1=O (stereo unspecified) | > 39
42 | COc1ccc(-n2c(C)ccc2C)c([N+](=O)[O-])c1 | 22.7 (≈ 92.2 µM)
43 | COc1ccc(OC)c(NC(=O)c2ccc3c(c2)OCO3)c1 | 4.7 (≈ 15.6 µM)
44 | Cc1ccccc1C1NC(c2ccccc2C)C([N+](=O)[O-])C(C)(C)C1[N+](=O)[O-] (stereo unspecified) | 0.3 (≈ 0.782 µM)
45 | CCOC(=O)c1cc(C)n(-c2ccccc2)c1C | 3 (≈ 12.3 µM)
46 | Cc1ncc(CN2CCN(CCc3ccccc3)C(CCO)C2)s1 (stereo unspecified) | 39.7 (≈ 115 µM)
47 | N#C/C(=C\c1ccccc1)C(=O)NCc1ccc(F)cc1 | 5.3 (≈ 18.9 µM)
48 | COc1cc(C)cc(OC)c1OCC(=O)Nc1cc(C)on1 | 6.4 (≈ 20.9 µM)
49 | CCc1ccc(N2CC(C(=O)NC3CC3)CC2=O)cc1 (stereo unspecified) | > 40.9
50 | C1CCCCCC(NCCN2CCNCC2)CCCCC1 | > 44.3

Row | Structure (SMILES) | solubility kinetic [µg/mL]
51 | CC(C)CN1C(=O)C(=O)N(CC(=O)c2ccc3c(c2)CCCC3)C1=O | 47.2 (≈ 138 µM)
52 | COCCNC(=O)c1cccc(NC(=O)C2=C(C)OCCS2)c1 | > 50.5
53 | N#Cc1ccc(S(=O)(=O)NC2CCN(Cc3ccccc3)CC2)cc1 | 42.5 (≈ 120 µM)
54 | CC(=O)NCCc1c[nH]c2ccc(OCc3ccccc3)cc12 | 42.4 (≈ 137 µM)
55 | Cc1cc(C)c(S(=O)(=O)NCC(=O)NCc2ccccn2)c(C)c1 | > 52.1
56 | O=C(Cn1c(=O)oc2ccccc21)Nc1ccc(F)c(F)c1 | 7.9 (≈ 26 µM)
57 | S=C1NCN(CCc2ccccc2)CN1 | > 33.2
58 | Cc1ccc(S(=O)(=O)NCCc2ccncc2)cc1C | > 43.6
59 | Cc1ccc(SCC(=O)N=C2NC(=O)CS2)cc1 | 35.9 (≈ 128 µM)
60 | CC1=C/C(=N\OS(=O)(=O)c2ccccc2)C(C)=CC1=O | 6.4 (≈ 22 µM)
61 | CC(C)(C)c1ccc(C(=O)NCCCNC(=O)c2ccccn2)cc1 | > 50.9
62 | O=C(CC(c1ccccc1)c1ccccc1)Nc1ccc(C(=O)O)cc1 | > 51.8
63 | O=C(OCC(=O)N1CCCCCC1)c1ccc[nH]c1=O | > 41.7
64 | O=C(COc1cc(Cl)ccc1Cl)Nc1ccc2[nH]c(=O)[nH]c2c1 | 2.7 (≈ 7.67 µM)
65 | COc1ccc(C(=O)NCc2ccc3c(c2)cc(C)n3C)cc1OC | 4.7 (≈ 13.9 µM)
66 | CC(C)(C)C(=O)CSc1nc(N)cc(=O)[nH]1 | 33.1 (≈ 137 µM)
67 | CSc1nc(-c2ccc(Cl)cc2)nc(N)c1C#N | < 0.1
68 | O=C1CNC(=S)N1C1CCCCCC1 | 23.8 (≈ 112 µM)
69 | O=C(O)C(Cc1ccc(O)cc1)N1C(=O)C2CCCCC2C1=O (stereo unspecified) | > 47.6
70 | S=C(NCc1ccncc1)Nc1ccc(Br)cc1 | > 48.3
71 | COc1ccc(N=c2ssnc2Cl)cc1 | 0.4 (≈ 1.55 µM)
72 | O=C(c1cc(-c2ccccc2O)on1)N1CCOCC1 | > 41.1
73 | COc1ccc(C(=O)O)cc1NCc1ccc(C)s1 | > 41.6
74 | COC(=O)c1ccccc1NC(=O)CN1CCc2ccccc2C1 | 10.7 (≈ 33 µM)
75 | N#Cc1ccc(/C=C/C(=O)c2ccc3c(c2)OCO3)cc1 | 2.9 (≈ 10.5 µM)

Row | Structure (SMILES) | solubility kinetic [µg/mL]
76 | CCOc1ccccc1NC(=O)CN1CCC(NC(=O)Nc2ccccc2)CC1 | 18.5 (≈ 46.7 µM)
77 | C=CCNC(=S)N1CCOCC1 | > 27.9
78 | CC1CC(C)CN(C(=O)C(C)N2CCN(S(=O)(=O)c3ccc(Br)s3)CC2)C1 (stereo unspecified) | 29.7 (≈ 62.1 µM)
79 | CNCCc1ccccc1 | < 0.3
80 | Cc1ccccc1C(=O)NNC(=O)c1ccc2nc[nH]c2c1 | > 44.1
81 | O=C1c2ccccc2C(=O)N1CC(O)COc1ccccc1Cl (stereo unspecified) | 44 (≈ 133 µM)
82 | CCCNC(=O)Nc1cc(S(=O)(=O)CC)ccc1O | 37.9 (≈ 132 µM)
83 | N#Cc1cnn(-c2ccc(F)cc2)c1N | > 30.3
84 | O=C(Nc1ccc(O)cc1)N1CCOCC1 | > 33.3
85 | O=C(c1cccs1)N1CCN=C1SCc1cccc(F)c1 | < 0.3
86 | O=C(COC(=O)C1COc2ccccc2O1)NC1CCCCC1 (stereo unspecified) | > 47.9
87 | COCCCNC(=O)c1ccc(-c2nc3ccccc3nc2-c2ccccc2)cc1 | 32.4 (≈ 81.5 µM)
88 | COc1cccc(NC(=O)Nc2cccnc2)c1 | > 36.5
89 | c1ccc(-c2csc(NC3CCCCC3)n2)cc1 | 4.1 (≈ 15.9 µM)
90 | COc1ccccc1C(=O)NC(CCSC)C(=O)NC1CC1 (stereo unspecified) | > 48.4
91 | CC1CCN(C(=O)CSc2nc(C3CC3)nc3ccccc23)CC1 | > 51.2
92 | C=CCOC(=O)C1=C(C)OC(N)=C(C#N)C1c1ccco1 (stereo unspecified) | 9.6 (≈ 33.5 µM)
93 | CC(Sc1nccn1C)C(=O)NC1(C#N)CCCCC1 (stereo unspecified) | > 43.9
94 | CCSc1ncc(Cl)c(C(=O)Nc2ccccc2C)n1 | 0.5 (≈ 1.62 µM)
95 | N/C(=N\O)c1ccc([N+](=O)[O-])s1 | > 28.1
96 | O=C(COC(=O)c1ccco1)Nc1ccc(Cl)cn1 | 24.8 (≈ 88.4 µM)
97 | COc1ccc(OC)c(C2=NOC(C(=O)NCc3cccnc3)C2)c1 (stereo unspecified) | 47.8 (≈ 140 µM)
98 | Cc1[nH]c2ccccc2c1C(=O)C(=O)NCCOc1ccccc1 | 2.2 (≈ 6.82 µM)
99 | Cn1ccnc1-c1ccc(-c2nccn2C)cc1 | 33.8 (≈ 142 µM)
100 | O=c1c2ccccc2ncn1-c1ccc(Cl)cc1 | 8.7 (≈ 33.9 µM)

Row | Structure (SMILES) | solubility kinetic [µg/mL]
101 | Nc1c(C(=O)N2CCOCC2)sc2nc3c(cc12)CCCC3 | > 47.6
102 | COC(=O)c1ccccc1NC(=O)NC1CCCCC1 | 2.6 (≈ 9.41 µM)
103 | CC(=O)Nc1ccc(-c2nc3ccc(NC(C)=O)cc3o2)cc1 | 2.2 (≈ 7.11 µM)
104 | Cc1ccc(NC(=O)COC(=O)C2(CC(=O)NC(C)(C)C)CCCC2)cc1C | 2.5 (≈ 6.43 µM)
105 | O=C(Cc1cccs1)NCc1cccc(Cl)c1 | > 39.9
106 | O=C(COC(=O)c1cncc(Br)c1)NC12CC3CC(CC(C3)C1)C2 | 1.4 (≈ 3.56 µM)
107 | COc1ccccc1NC(=O)N1CCN(c2ccnc3cc(Cl)ccc23)CC1 | 18.5 (≈ 46.6 µM)
108 | Nc1cc(N2CCCCCC2)c2nonc2c1[N+](=O)[O-] | 0.9 (≈ 3.25 µM)
109 | N#Cc1cc([N+](=O)[O-])ccc1NC(=O)CSc1n[nH]c(=O)[nH]c1=O | > 52.2
110 | N#Cc1ccsc1NC(=O)CN1C(=O)NC2(CCCCC2)C1=O | 47.3 (≈ 142 µM)
111 | CCOC(=O)Cc1csc(N(C)C)n1 | 25.4 (≈ 119 µM)
112 | CC1CC(=O)Nc2ccccc2N1S(=O)(=O)c1cccc(F)c1 (stereo unspecified) | 30 (≈ 89.7 µM)
113 | CC(=O)Nc1ccc(S(=O)(=O)Nc2nc3ccccc3nc2N2CCOCC2)cc1 | > 64.1
114 | Brc1nc(-c2ccccc2)nc(-c2ccccc2)c1Br | < 0.4
115 | COc1ccc(NC(=S)Nc2ccccc2SC)c(OC)c1 | 47.5 (≈ 142 µM)
116 | COC(=O)c1cccc(N2CCCC2=O)c1 | > 32.9
117 | Cc1cccc(OCCCC(=O)N2CCCCCC2)c1C | 26.9 (≈ 92.9 µM)
118 | CCn1c2ccccc2c2cc(NC(=O)c3ccc(=O)oc3)ccc21 | 1.2 (≈ 3.61 µM)
119 | Cc1ccc(S(=O)(=O)Nc2ccc(S(=O)(=O)Nc3nccs3)cc2)cc1C | > 63.5
120 | Cc1ccc(C)c(N(CC(=O)N2CCCCCC2)S(C)(=O)=O)c1 | 46.9 (≈ 139 µM)
121 | Cl.O=C(COc1ccc(Br)cc1)NCCN1CCCC1 | 51.8

From PubChem BioAssay AID1996
